Key:
[1] = target: Angiotensin-converting enzyme (Homo sapiens) (UniProt P12821); assay: Selectivity index, ratio of Ki for human wild type ACE N-domain to Ki for human testis ACE C-domain (unknown origin) using Abz-FRK(Dnp)P-OH as substrate by fluorescence based analysis
[2] = target: Angiotensin-converting enzyme (Homo sapiens) (UniProt P12821); assay: Selectivity index, ratio of Ki for human somatic ACE N-terminal domain to human somatic ACE C-terminal domain using MCA-RPPGFSAFK-Dnp-OH as substrate by fluorescence based analysis
[3] = target: Angiotensin-converting enzyme (Homo sapiens) (UniProt P12821); assay: Selectivity index, ratio of Ki for human ACE N-domain soluble form (1 to 629 residues) expressed in CHO cells to Ki for human testis ACE C-domain lacking unique O-glycosylated region, transmembrane anchor and cytoplasmic tail expressed in CHO cells; type: cell-based

Angiotensin-converting enzyme (Homo sapiens), sequence (P12821 whole entry, the tested form may be a part): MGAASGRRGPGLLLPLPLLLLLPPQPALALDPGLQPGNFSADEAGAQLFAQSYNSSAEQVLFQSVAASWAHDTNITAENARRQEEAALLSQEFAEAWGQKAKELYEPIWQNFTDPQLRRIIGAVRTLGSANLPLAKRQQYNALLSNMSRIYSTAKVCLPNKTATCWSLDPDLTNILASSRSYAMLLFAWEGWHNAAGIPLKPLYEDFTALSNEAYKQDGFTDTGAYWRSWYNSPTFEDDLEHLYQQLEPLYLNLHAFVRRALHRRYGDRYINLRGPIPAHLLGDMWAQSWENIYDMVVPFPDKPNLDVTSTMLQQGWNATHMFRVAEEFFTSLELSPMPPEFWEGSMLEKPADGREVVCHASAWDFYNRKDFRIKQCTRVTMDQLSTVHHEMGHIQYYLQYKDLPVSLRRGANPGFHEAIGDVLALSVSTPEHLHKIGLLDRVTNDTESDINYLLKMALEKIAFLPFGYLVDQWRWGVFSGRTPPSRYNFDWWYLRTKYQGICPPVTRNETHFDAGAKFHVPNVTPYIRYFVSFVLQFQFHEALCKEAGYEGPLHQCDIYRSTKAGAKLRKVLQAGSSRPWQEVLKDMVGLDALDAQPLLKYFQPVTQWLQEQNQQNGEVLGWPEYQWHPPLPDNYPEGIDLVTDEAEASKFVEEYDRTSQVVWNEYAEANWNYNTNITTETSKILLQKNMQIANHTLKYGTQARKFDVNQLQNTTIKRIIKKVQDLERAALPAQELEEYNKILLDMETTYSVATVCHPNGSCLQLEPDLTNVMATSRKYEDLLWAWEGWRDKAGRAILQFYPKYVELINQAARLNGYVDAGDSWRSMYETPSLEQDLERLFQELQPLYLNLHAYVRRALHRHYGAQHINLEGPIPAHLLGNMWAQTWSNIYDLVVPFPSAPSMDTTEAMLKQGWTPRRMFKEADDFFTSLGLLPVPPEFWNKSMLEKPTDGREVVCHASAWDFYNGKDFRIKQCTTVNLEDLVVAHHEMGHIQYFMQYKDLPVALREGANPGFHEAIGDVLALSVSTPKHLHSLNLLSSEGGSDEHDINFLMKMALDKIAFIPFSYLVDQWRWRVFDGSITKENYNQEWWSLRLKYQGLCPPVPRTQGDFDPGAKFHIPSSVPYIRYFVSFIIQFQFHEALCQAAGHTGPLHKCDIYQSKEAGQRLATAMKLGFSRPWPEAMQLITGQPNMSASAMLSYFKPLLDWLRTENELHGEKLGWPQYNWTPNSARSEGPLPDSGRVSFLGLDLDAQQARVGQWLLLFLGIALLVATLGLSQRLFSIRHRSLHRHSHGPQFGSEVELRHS

SMILES | Ratio Ki [1] | other results
NCCCC[C@H](N[C@@H](CCc1ccccc1)C(=O)O)C(=O)N1CCC[C@H]1C(=O)O | 4 | –
O=C(N[C@@H](Cc1ccccc1)P(=O)(O)[C@@H]1CCC[C@H]1C(=O)N[C@@H](Cc1c[nH]c2ccccc12)C(=O)O)OCc1ccccc1 | – | Ratio Ki [2]: 3000
NCCCC[C@H](N[C@@H](CCc1ccccc1)C(=O)O)C(=O)N[C@H](Cc1c[nH]c2ccccc12)C(=O)O | 243 | –
CS(=O)(=O)N[C@@H](CCCCN)C(=O)NC[C@H](CC1(C(=O)N[C@@H](Cc2ccc(O)cc2)C(=O)O)CCCC1)C(=O)O | – | Ratio Ki [3]: 12.5

— ChEMBL document CHEMBL4402607, “Molecular Basis for Omapatrilat and Sampatrilat Binding to Neprilysin-Implications for Dual Inhibitor Design with Angiotensin-Converting Enzyme” (J Med Chem, 2020)
